# Assay results: patent US9302999B2, “Substituted triazoles as herbicides” (E. I. DU PONT DE NEMOURS AND COMPANY, priority 2012, dated 2016)
# Assays:
# Assay type in all cases: in vivo
# Waterhemp = experiment: Test C postemergence: waterhemp
# Summary of the method: (§1)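 Response values are visual ratings, 0 (no effect) to 100 (complete control), made by comparison with untreated controls 13 to 15 days after postemergence treatment of greenhouse-grown potted plants that were 2 to 18 cm high at spraying.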
# [1] = tested on: galium (catchweed bedstraw, Galium aparine); experiment: Test C pre-/postemergence: galium
# Summary of the method: (§2)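 Visual injury scored 0–100 (100 = complete control) against untreated controls after 13–15 greenhouse days. Surfactant-containing solvent formulations applied either to soil after sowing (loam/sand) or over 1- to 4-leaf plants, 2–18 cm tall.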
# Oilseed Rape = experiment: Test C postemergence: oilseed rape
# Summary of the method: as §1
# [2] = tested on: velvetleaf (Abutilon theophrasti); experiment: Test A pre-/postemergence: velvetleaf
# Summary of the method: (§3)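 Compounds, formulated with surfactant in non-phytotoxic solvent, were applied as a directed soil spray preemergence and as postemergence sprays to 2–10 cm, one- to two-leaf seedlings grown in loam soil blended with sand; visual injury, 0–100, assessed ~10 days post-treatment against untreated controls.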
# [3] = tested on: crabgrass, large (large crabgrass, Digitaria sanguinalis); experiment: Test A pre-/postemergence: crabgrass, large
# Summary of the method: as §3
# [4] = tested on: morningglory (Ipomoea spp.); experiment: Test A pre-/postemergence: morningglory
# Summary of the method: as §3
# [5] = tested on: johnsongrass (Sorghum halepense); experiment: Test C pre-/postemergence: johnsongrass
# Summary of the method: as §2
# [6] = tested on: foxtail, giant (giant foxtail, Setaria faberii); experiment: Test A pre-/postemergence: foxtail, giant
# Summary of the method: as §3
# [7] = tested on: morningglory (Ipomoea coccinea); experiment: Test C pre-/postemergence: morningglory
# Summary of the method: as §2
# [8] = tested on: blackgrass (Alopecurus myosuroides); experiment: Test C pre-/postemergence: blackgrass
# Summary of the method: as §2
# [9] = 62 g ai/ha, scale 0 to 100 (0 no effect, 100 complete control)
# [10] = Postemergence, 31 g ai/ha, scale 0 to 100 (0 no effect, 100 complete control)
# [11] = Postemergence, 62 g ai/ha, scale 0 to 100 (0 no effect, 100 complete control)
# [12] = Postemergence, 125 g ai/ha, scale 0 to 100, 0 no effect, 100 complete control
# [13] = Postemergence, 250 g ai/ha, scale 0 to 100 (0 no effect, 100 complete control)
# [14] = Preemergence, 31 g ai/ha, scale 0 (no effect) to 100 (complete control)
# [15] = Preemergence, 62 g ai/ha, scale of 0 to 100, 0 is no effect, 100 is complete control
# [16] = Preemergence, 125 g ai/ha, scale 0 to 100, 0 no effect, 100 complete control
# [17] = Preemergence, 250 g ai/ha, scale 0 to 100, 0 no effect, 100 complete control
# [18] = Postemergence, 125 g ai/ha, 0 to 100 scale, 0 is no effect, 100 is complete control
# [19] = Postemergence, 500 g ai/ha, 0 to 100 scale, 0 is no effect, 100 is complete control
# [20] = Preemergence, 125 g ai/ha, 0 to 100 scale where 0 is no effect and 100 is complete control
# [21] = Preemergence, 500 g ai/ha, 0 to 100 scale (0 no effect, 100 complete control)
# [22] = Postemergence, 250 g ai/ha, scale 0 to 100
# [23] = 31 g ai/ha, scale 0 to 100 (0 no effect, 100 complete control)
# [24] = Preemergence, 31 g ai/ha, scale of 0 to 100, 0 is no effect, 100 is complete control
# [25] = Postemergence, 500 g ai/ha, visual rating on 0 to 100 scale (0 no effect, 100 complete control), approximately ten days
smiles,measurement,setting,value
CCc1nn(-c2ccc(C(F)(F)F)c(F)c2)nc1Oc1ccnc(C(F)(F)F)c1 [Compound 183],"Plant response rating, Waterhemp",Waterhemp; [9],100
same,"Plant response rating, Galium",[1]; [10],70
same,"Plant response rating, Galium",[1]; [11],70
same,"Plant response rating, Galium",[1]; [12],90
same,"Plant response rating, Galium",[1]; [13],90
same,"Plant response rating, Galium",[1]; [14],60
same,"Plant response rating, Galium",[1]; [15],100
same,"Plant response rating, Galium",[1]; [16],100
same,"Plant response rating, Galium",[1]; [17],100
same,"Plant response rating, Oilseed Rape",Oilseed Rape; [9],25
same,"Plant response rating, Velvetleaf",[2]; [18],100
same,Velvetleaf plant response rating,[2]; [19],100
same,"Plant response rating, Velvetleaf",[2]; [20],70
same,"Plant response rating, Velvetleaf",[2]; [21],80
same,"Plant response rating, Crabgrass, Large",[3]; [18],90
same,"Crabgrass, Large plant response rating",[3]; [19],90
same,"Plant response rating, Crabgrass, Large",[3]; [20],100
same,"Plant response rating, Crabgrass, Large",[3]; [21],100
same,"Plant response rating, Morningglory",[4]; [18],100
same,Morningglory plant response rating,[4]; [19],100
same,"Plant response rating, Morningglory",[4]; [20],70
same,"Plant response rating, Morningglory",[4]; [21],90
same,"Plant response rating, Johnsongrass",[5]; [10],20
same,"Plant response rating, Johnsongrass",[5]; [11],30
same,"Plant response rating, Johnsongrass",[5]; [12],50
same,"Plant response rating, Johnsongrass",[5]; [13],75
same,"Plant response rating, Johnsongrass",[5]; [14],10
same,"Plant response rating, Johnsongrass",[5]; [15],35
same,"Plant response rating, Johnsongrass",[5]; [16],80
same,"Plant response rating, Johnsongrass",[5]; [17],95
same,"Plant response rating, Foxtail, Giant",[6]; [18],90
same,"Foxtail, Giant plant response rating",[6]; [19],90
same,"Plant response rating, Foxtail, Giant",[6]; [20],100
same,"Plant response rating, Foxtail, Giant",[6]; [21],100
same,"Plant response rating, Morningglory",[7]; [10],98
same,"Plant response rating, Morningglory",[7]; [11],98
same,"Plant response rating, Morningglory",[7]; [12],100
same,"Plant response rating, Morningglory",[7]; [13],100
same,"Plant response rating, Morningglory",[7]; [14],30
same,"Plant response rating, Morningglory",[7]; [15],45
same,"Plant response rating, Morningglory",[7]; [16],70
same,"Plant response rating, Morningglory",[7]; [17],95
same,"Plant response rating, Blackgrass",[8]; [10],10
same,"Plant response rating, Blackgrass",[8]; [11],20
same,"Plant response rating, Blackgrass",[8]; [12],60
same,"Plant response rating, Blackgrass",[8]; [22],60
same,"Plant response rating, Blackgrass",[8]; [14],80
same,"Plant response rating, Blackgrass",[8]; [15],95
same,"Plant response rating, Blackgrass",[8]; [16],95
same,"Plant response rating, Blackgrass",[8]; [17],100
CCc1nn(-c2ccc(F)cc2)nc1Cc1ccnc(C(F)(F)F)c1 [Compound 154],"Plant response rating, Waterhemp",Waterhemp; [23],90
same,"Plant response rating, Waterhemp",Waterhemp; [9],98
same,"Plant response rating, Waterhemp","Waterhemp; 250 g ai/ha, scale 0 to 100",98
same,"Plant response rating, Galium",[1]; [10],45
same,"Plant response rating, Galium",[1]; [11],60
same,"Plant response rating, Galium",[1]; [12],70
same,"Plant response rating, Galium",[1]; [22],75
same,"Plant response rating, Galium",[1]; [24],5
same,"Plant response rating, Galium",[1]; [15],85
same,"Plant response rating, Galium",[1]; [16],85
same,"Plant response rating, Galium",[1]; [17],100
same,"Plant response rating, Oilseed Rape",Oilseed Rape; [23],80
same,"Plant response rating, Oilseed Rape",Oilseed Rape; [9],90
same,"Plant response rating, Oilseed Rape","Oilseed Rape; 250 g ai/ha, scale 0 to 100",95
same,"Plant response rating, Velvetleaf",[2]; [18],100
same,Velvetleaf plant response rating,[2]; [25],100
same,"Plant response rating, Velvetleaf",[2]; [20],30
same,"Plant response rating, Velvetleaf",[2]; [21],70
same,"Plant response rating, Crabgrass, Large",[3]; [18],100
same,"Crabgrass, Large plant response rating",[3]; [25],100
same,"Plant response rating, Crabgrass, Large",[3]; [20],100
same,"Plant response rating, Crabgrass, Large",[3]; [21],100
same,"Plant response rating, Morningglory",[4]; [18],80
same,Morningglory plant response rating,[4]; [25],100
same,"Plant response rating, Morningglory",[4]; [20],20
same,"Plant response rating, Morningglory",[4]; [21],80
same,"Plant response rating, Johnsongrass",[5]; [10],10
same,"Plant response rating, Johnsongrass",[5]; [11],30
same,"Plant response rating, Johnsongrass",[5]; [12],65
same,"Plant response rating, Johnsongrass",[5]; [22],85
same,"Plant response rating, Johnsongrass",[5]; [24],40
same,"Plant response rating, Johnsongrass",[5]; [15],40
same,"Plant response rating, Johnsongrass",[5]; [16],90
same,"Plant response rating, Johnsongrass",[5]; [17],95
same,"Plant response rating, Foxtail, Giant",[6]; [18],90
same,"Foxtail, Giant plant response rating",[6]; [25],100
same,"Plant response rating, Foxtail, Giant",[6]; [20],100
same,"Plant response rating, Foxtail, Giant",[6]; [21],100
same,"Plant response rating, Morningglory",[7]; [10],40
same,"Plant response rating, Morningglory",[7]; [11],75
same,"Plant response rating, Morningglory",[7]; [12],75
same,"Plant response rating, Morningglory",[7]; [22],98
same,"Plant response rating, Morningglory",[7]; [24],0
same,"Plant response rating, Morningglory",[7]; [15],5
same,"Plant response rating, Morningglory",[7]; [16],5
same,"Plant response rating, Morningglory",[7]; [17],25
same,"Plant response rating, Blackgrass",[8]; [10],15
same,"Plant response rating, Blackgrass",[8]; [11],35
same,"Plant response rating, Blackgrass",[8]; [12],55
same,"Plant response rating, Blackgrass",[8]; [22],70
same,"Plant response rating, Blackgrass",[8]; [24],90
same,"Plant response rating, Blackgrass",[8]; [15],90
same,"Plant response rating, Blackgrass",[8]; [16],90
same,"Plant response rating, Blackgrass",[8]; [17],90
